Measurements: patent US10435642B2, “Ionic liquids containing symmetric quaternary phosphonium cations and phosphorus-containing anions, and their use as lubricant additives” (UT-Battelle, LLC, priority 2014, dated 2019)

Assays:
[1] = Density measurement of ionic liquids; type: physicochemical; settings: neat ionic liquid
Method: (§1) Density and Viscosity Measurements
(§2) The density and viscosity of [P8888][DEHP] were measured and compared with those of [P66614][DEHP] and [P44414][DEHP].

[2] = Viscosity measurement of ionic liquids; type: physicochemical
Method: as §1, §2

[3] = Corrosion test: droplet of ionic liquid on grey cast iron; settings: observation in the corrosion test
From the text: A droplet of each IL was placed on the surface of a piece of grey cast iron.

[4] = Thermogravimetric analysis (TGA) thermal stability in air; type: physicochemical
From the text: ZDDP, when decomposed, left about a 20% solid residue (“ash”) because of its zinc content. In contrast, all decomposition products of the ionic liquids were gaseous, thus confirming their “ashless” nature.

Substance | Oil-solubility in ExxonMobil PAO 4 cSt base oil (ExxonMobil PAO 4 cSt base oil) | ρ (density) [1] | η (viscosity) 40° C. [2] | η (viscosity) 100° C. [2] | Oil-solubility in Chevron SAE 10 W base oil (Chevron SAE 10 W base oil) | Oil-solubility in Shell GTL 4 cSt base oil (Shell GTL 4 cSt base oil) | Hydrophobicity compared to the other ionic liquids [3] | Solid residue (ash) after decomposition [4]
tetraoctylphosphonium bis(2-ethylhexyl)phosphate [[P8888][DEHP]] | >50 wt % | 0.86 g/cc | 608 cP | 68 cP |  |  |  | 
tributyltetradecylphosphonium bis(2-ethylhexyl)phosphate [[P44414][DEHP]] |  | 0.88 g/cc | 252 cP | 25 cP | <1 wt % | <1 wt % | lower hydrophobicity | 
trihexyltetradecylphosphonium bis(2-ethylhexyl)phosphate [[P66614][DEHP]] |  | 0.91 g/cc | 390 cP | 45 cP |  |  |  | 
zinc dialkyldithiophosphate [ZDDP] |  |  |  |  |  |  |  | ~20%
